From patent US20110059043A1, “CHEMICAL COMPOUNDS” (priority 2009, published 2011)

Key:
[1] = system: HCV replicon cells Huh 9B; assay type: cell-based; conditions: concentration reducing total cell area by 50% relative to DMSO controls; 72 h
Protocol: (§1) HCV replicon cells Huh 9B (ReBlikon), containing the firefly luciferase—ubiquitin—neomycin phosphotransferase fusion protein and EMCV-IRES driven HCV polyprotein with cell culture adaptive mutations.
(§2) Cells were cultured at 37° C. in a 5% CO2 environment and split twice a week on seeding at 2×10^6 cells/flask on day 1 and 1×10^6 3 days later. G418 at 0.5 mg/ml was added to the culture medium but not the assay medium. The culture medium consisted of DMEM with […] glucose and glutamax (Gibco 61965-026) supplemented with 1×non-essential amino acids (Invitrogen 11140-035), penicillin (100 IU/ml)/streptomycin (100 μg/ml) (Invitrogen 15140-122), FCS (10%, 50 ml) and […] (Invitrogen 10131-027) & 10% Australian foetal calf serum (Invitrogen 10099-141).
(§3) A flask of cells was trypsinised and a cell count carried out. Cells were diluted to 100,000 cells/ml and 100 μl of this used to seed one opaque white 96-well plate (for the replicon assay) and one flat-bottomed clear plate (for the tox assay) for every five compounds to be tested for IC50. Wells G12 and H12 were left empty in the clear plate as the blank. Plates were then incubated at 37° C. in a 5% CO2 environment for 24 h.
(§4) On the following day compound dilutions are made up in medium at twice their desired final concentration in a clear round bottomed plate. All dilutions have a final DMSO concentration of 1%.
(§5) Once the dilution plate had been made up, controls and compounds were transferred to the assay plates (containing the cells) at 100 μl/well in duplicate wells. Exception: no compound was added to wells A1 and A2 of either plate and 100 μl of 1% DMSO was added to these instead. Plates were then incubated at 37° C. with 5% CO2 for 72 h.
The clear plate was stained with 100 μl 0.5% methylene blue in 50% ethanol at room temperature for lh, followed by solvation of the absorbed methylene blue in 100 μl per well of 1% lauroylsarcosine. Absorbance of the plate was measured on a microplate spectrophotometer (Molecular Devices) and the absorbance for each concentration of compound expressed as a proportion of the relative DMSO control. The TD50, the concentration of drug required to reduce the total cell area by 50% relative to the DMSO controls, can be calculated by plotting the absorbance at 620 nm minus background against drug concentration.

[2] = target: T1, Recombinant HCV polymerase (BK strain) (Hepatitis C virus genotype 1b, UniProt P26663); experiment: HCV polymerase enzyme assay (radiometric [33P]-UTP incorporation); assay type: biochemical, HCV 1b
T1 construct: Recombinant HCV polymerase (BK strain) was expressed and purified from E. coli with a 21 amino acid C-terminal deletion; His6; made in house; host or cells: E. coli
Protocol: Compounds were tested for inhibition of HCV polymerase using a radiometric [^33P]-UTP incorporation assay and a biotinylated U13:PolyA primer:template RNA substrate.
Recombinant HCV polymerase (BK strain) was expressed and purified from E. coli with a 21 amino acid C-terminal deletion and a His6-tag. The general assay buffer consisted of 20 mM Tris (pH 7.5), 25 mM KCl, 5 mM MgCl2, 3 mM DTT, 0.5 mg/ml BSA, 0.01% Tween20. The standard reaction, in 96 well plates, contained 10 μl of diluted compound, 50 μl of substrate and 40 μl of enzyme. Compounds, supplied as 10 mM stocks in DMSO, were diluted initially in neat DMSO, and subsequently buffer was added to give a DMSO concentration of 30%; 10 μl of this was added to the assay plate to give a final concentration in the 100 μl assay of 3% DMSO. The biotinylated U13:PolyA RNA substrate was pre-annealed with 40 μM 5′-biotinylated U13 (Dharmacon) and 213 μg/ml PolyA (Amersham Biosciences) in water incubated at 70° C. for 5 minutes before being cooled on ice. Substrate (50 μl) was added in buffer to give a final concentration in the 100 μl assay of 125 nM biotinylated U13:0.63 μg/ml PolyA and 200 nM UTP with 0.4 μCi [^33P]-UTP per well (Perkin Elmer). The reaction was initiated by the addition of 40 μl of enzyme in buffer to give 100 nM final concentration. The reaction was incubated at 25° C. for 100 minutes and then stopped by addition of 100 μl of 100 mM EDTA. The samples were then transferred to 96 well Streptavidin-coated FlashPlates (Perkin Elmer) and incubated at room temperature for ˜1 hour to allow binding to occur. The plates were then washed three times with phosphate-buffered saline containing 0.05% Tween20 in an automated plate washer to remove unincorporated [^33P]-UTP, and then counted in a
Each plate included a set of positive controls (no compound, maximum signal) and negative controls (no enzyme, minimum signal) and in each run at least one reference is compound was included to validate the assay. The IC50, concentration required to inhibit the enzyme activity by 50%, was calculated using an 8-point IC50 curve and fitted using the program XLfit (IDBS).

[3] = system: HCV replicon cells Huh 9B; experiment: HCV replicon assay (luciferase); assay type: cell-based; conditions: Hepatitis C virus, reduction of replicon level by 50% vs untreated cell control, 72 h
Protocol: as §1, §2, §3, §4, §5
At the end of the incubation time, the cells in the white plate were harvested by washing in PBS (100 μL per well) and gently tapping dry before addition of […] of lysis buffer (25 mM tris-phosphate, 8 mM MgCl2, 1 mM DTT, 1% Triton X-100, 15% glycerol. pH to 7.8 using KH2PO4 prior to triton and glycerol addition. Substrate was prepared: 23.5 mM beetle luciferin (Promega E1603), 26 mM ATP (Sigma O-2060) in […] Tris buffer pH 7.8 aliquoted and stored at −80° C. was thawed and diluted 1:50 in luciferase assay buffer (20 mM Tricine (Sigma T-0377), 1.07 mM magnesium carbonate hydroxide (Sigma M-5671), 0.1 mM EDTA (Sigma E-5134), 2.67 mM MgSO4(BDH 101514Y), 33.3 mM dithiothreitol (Sigma 150460) pH 7.8).
The M injector of the microplate luminometer (Lmax, Molecular Devices) was primed with 5×300 μl injections of the diluted substrate. After 5-60 min incubation in lysis buffer at room temperature, a plate was inserted into the luminometer and 100 μl luciferase assay reagent was added by the injector on the luminometer. The signal was measured using a 1 second delay followed by a 4 second measurement programme. The IC50, the concentration of the drug required for reducing the replicon level by 50% in relation to the untreated cell control value, can be calculated from the plot of the percentage reduction of the luciferase activity vs. drug concentration.

T1 sequence (P26663 2420-2989): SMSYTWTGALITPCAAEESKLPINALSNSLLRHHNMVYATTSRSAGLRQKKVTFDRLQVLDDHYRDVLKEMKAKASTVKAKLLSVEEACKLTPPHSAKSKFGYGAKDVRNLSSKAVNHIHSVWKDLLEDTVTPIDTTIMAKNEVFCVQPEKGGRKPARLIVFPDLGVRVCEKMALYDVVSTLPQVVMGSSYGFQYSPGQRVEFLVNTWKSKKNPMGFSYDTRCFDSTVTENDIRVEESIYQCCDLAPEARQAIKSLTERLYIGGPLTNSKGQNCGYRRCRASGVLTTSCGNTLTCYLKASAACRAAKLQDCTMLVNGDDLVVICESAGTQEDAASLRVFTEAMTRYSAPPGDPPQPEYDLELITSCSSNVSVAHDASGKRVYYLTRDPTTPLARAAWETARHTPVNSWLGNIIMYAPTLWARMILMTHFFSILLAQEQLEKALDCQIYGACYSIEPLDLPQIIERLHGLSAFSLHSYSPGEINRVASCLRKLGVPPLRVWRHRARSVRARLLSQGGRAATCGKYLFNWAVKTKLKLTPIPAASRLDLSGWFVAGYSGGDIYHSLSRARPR

## COCCOc1ccc(F)cc1C(=O)NC1N=C(c2c(Cl)cc(Cl)cc2Cl)c2ccccc2NC1=O (stereo not drawn) [Example 16, 5-Fluoro-2-(2-methoxyethoxy)-N-(2-oxo-5-(2,4,6-trichlorophenyl)-2,3-dihydro-1H-benzo[e][1,4]diazepin-3-yl)benzamide]
[1]
  Replicon Assay Value TD50: 22.094 µM
[2]
  IC50: 119 nM
[3]
  IC50: 38.7 nM

## COCCOc1ccc(C)cc1C(=O)NC1N=C(c2c(Cl)cc(Cl)cc2Cl)c2ccccc2NC1=O (stereo not drawn) [Example 17, 2-(2-Methoxyethoxy)-5-methyl-N-(2-oxo-5-(2,4,6-trichlorophenyl)-2,3-dihydro-1H-benzo[e][1,4]diazepin-3-yl)benzamide]
[1]
  Replicon Assay Value TD50: >25 µM
[2]
  IC50: 235 nM
[3]
  IC50: 78.8 nM

## COCCOc1ccc(C(C)=O)cc1C(=O)NC1N=C(c2c(Cl)cc(Cl)cc2Cl)c2ccccc2NC1=O (stereo not drawn) [Example 18, 5-Acetyl-2-(2-methoxyethoxy)-N-(2-oxo-5-(2,4,6-trichlorophenyl)-2,3-dihydro-1H-benzo[e][1,4]diazepin-3-yl)benzamide]
[1]
  Replicon Assay Value TD50: 15.802 µM
[2]
  IC50: 385 nM
[3]
  IC50: 876 nM

## COCCOc1ccc(OC(F)(F)F)cc1C(=O)NC1N=C(c2c(Cl)cc(Cl)cc2Cl)c2ccccc2NC1=O (stereo not drawn) [Example 19, 2-(2-Methoxyethoxy)-N-(2-oxo-5-(2,4,6-trichlorophenyl)-2,3-dihydro-1H-benzo[e][1,4]diazepin-3-yl)-5-(trifluoromethoxy)benzamide]
[1]
  Replicon Assay Value TD50: >25 µM
[2]
  IC50: 2150 nM
[3]
  IC50: 645 nM

## COCCOc1ccc(Br)cc1C(=O)NC1N=C(c2c(Cl)cc(Cl)cc2Cl)c2ccccc2NC1=O (stereo not drawn) [Example 20, 5-Bromo-2-(2-methoxyethoxy)-N-(2-oxo-5-(2,4,6-trichlorophenyl)-2,3-dihydro-1H-benzo[e][1,4]diazepin-3-yl)benzamide]
[1]
  Replicon Assay Value TD50: >25 µM
[2]
  IC50: 535 nM
[3]
  IC50: 195 nM

## CC(=O)NCCOc1ccc(Cl)cc1C(=O)NC1N=C(c2c(Cl)cc(Cl)cc2Cl)c2ccccc2NC1=O (stereo not drawn) [Example 21, 2-(2-Acetamidoethoxy)-5-chloro-N-(2-oxo-5-(2,4,6-trichlorophenyl)-2,3-dihydro-1H-benzo[e][1,4]diazepin-3-yl)benzamide]
[1]
  Replicon Assay Value TD50: 13.188 µM
[2]
  IC50: 98.7 nM
[3]
  IC50: 824 nM

## CCC(=O)NCCOc1ccc(Cl)cc1C(=O)NC1N=C(c2c(Cl)cc(Cl)cc2Cl)c2ccccc2NC1=O (stereo not drawn) [Example 22, 5-Chloro-N-(2-oxo-5-(2,4,6-trichlorophenyl)-2,3-dihydro-1H-benzo[e][1,4]diazepin-3-yl)-2-(2-propionamidoethoxy)benzamide]
[1]
  Replicon Assay Value TD50: 12.304 µM
[2]
  IC50: 197 nM
[3]
  IC50: 953 nM

## CS(=O)(=O)NCCOc1ccc(Cl)cc1C(=O)NC1N=C(c2c(Cl)cc(Cl)cc2Cl)c2ccccc2NC1=O (stereo not drawn) [Example 23, 5-Chloro-2-(2-(methylsulfonamido)ethoxy)-N-(2-oxo-5-(2,4,6-trichlorophenyl)-2,3-dihydro-1H-benzo[e][1,4]diazepin-3-yl)benzamide]
[1]
  Replicon Assay Value TD50: 12.744 µM
[2]
  IC50: 952 nM
[3]
  IC50: 2910 nM

## CCNC(=O)NCCOc1ccc(Cl)cc1C(=O)NC1N=C(c2c(Cl)cc(Cl)cc2Cl)c2ccccc2NC1=O (stereo not drawn) [Example 24, 5-Chloro-2-(2-(3-ethylureido)ethoxy)-N-(2-oxo-5-(2,4,6-trichlorophenyl)-2,3-dihydro-1H-benzo[e][1,4]diazepin-3-yl)benzamide]
[1]
  Replicon Assay Value TD50: 11.815 µM
[2]
  IC50: 281 nM
[3]
  IC50: 1280 nM

## CC(=O)NCCCOc1ccc(Cl)cc1C(=O)NC1N=C(c2c(Cl)cc(Cl)cc2Cl)c2ccccc2NC1=O (stereo not drawn) [Example 25, 2-(3-Acetamidopropoxy)-5-chloro-N-(2-oxo-5-(2,4,6-trichlorophenyl)-2,3-dihydro-1H-benzo[e][1,4]diazepin-3-yl)benzamide]
[1]
  Replicon Assay Value TD50: 12.774 µM
[2]
  IC50: 459 nM
[3]
  IC50: 575 nM

## CCC(=O)NCCCOc1ccc(Cl)cc1C(=O)NC1N=C(c2c(Cl)cc(Cl)cc2Cl)c2ccccc2NC1=O (stereo not drawn) [Example 26, 5-Chloro-N-(2-oxo-5-(2,4,6-trichlorophenyl)-2,3-dihydro-1H-benzo[e][1,4]diazepin-3-yl)-2-(3-propionamidopropoxy)benzamide]
[1]
  Replicon Assay Value TD50: 12.354 µM
[2]
  IC50: 647 nM
[3]
  IC50: 1620 nM

## CS(=O)(=O)NCCCOc1ccc(Cl)cc1C(=O)NC1N=C(c2c(Cl)cc(Cl)cc2Cl)c2ccccc2NC1=O (stereo not drawn) [Example 27, 5-Chloro-2-(3-(methylsulfonamido)propoxy)-N-(2-oxo-5-(2,4,6-trichlorophenyl)-2,3-dihydro-1H-benzo[e][1,4]diazepin-3-yl)benzamide]
[1]
  Replicon Assay Value TD50: 13.62 µM
[2]
  IC50: 824 nM
[3]
  IC50: 1910 nM

## CCS(=O)(=O)NCCCOc1ccc(Cl)cc1C(=O)NC1N=C(c2c(Cl)cc(Cl)cc2Cl)c2ccccc2NC1=O (stereo not drawn) [Example 28, 5-chloro-2-(3-(ethylsulfonamido)propoxy)-N-(2-oxo-5-(2,4,6-trichlorophenyl)-2,3-dihydro-1H-benzo[e][1,4]diazepin-3-yl)benzamide]
[1]
  Replicon Assay Value TD50: 8.004 µM
[2]
  IC50: 850 nM
[3]
  IC50: 2130 nM

## CS(=O)(=O)CCOc1ccc(Cl)cc1C(=O)NC1N=C(c2c(Cl)cc(Cl)cc2Cl)c2ccccc2NC1=O (stereo not drawn) [Example 29, 5-Chloro-2-(2-(methylsulfonyl)ethoxy)-N-(2-oxo-5-(2,4,6-trichlorophenyl)-2,3-dihydro-1H-benzo[e][1,4]diazepin-3-yl)benzamide]
[1]
  Replicon Assay Value TD50: 15.249 µM
[2]
  IC50: 747 nM
[3]
  IC50: 2770 nM
